Test results from article PMC5331433, “Ustiloxin G, a New Cyclopeptide Mycotoxin from Rice False Smut Balls” (Toxins, 2017).

Assays:
[1] = tested on: rice (Oryza sativa) seeds, radicle; test: Inhibition of radicle elongation of rice seeds; conditions: 48 h, 25 °C, dark, mean of triplicate ± SD
Procedure: (§1) Phytotoxicity of the compounds was evaluated by their inhibitory activities on the radicle and germ elongation of rice (Oryza sativa) seeds. Two varieties (Lijiang and Zhonghua 11) of the seeds, which were obtained from Prof. Zejian Guo (Department of Plant Pathology and collected in 2015, China Agricultural University) were used.
(§2) The bioassay was performed using the method described previously with some modifications. Briefly, five 3-day germinated rice seeds of each rice variety were sown onto each well of a 24-well plate, containing 200 μL of working solution. For preparing working solution, 1 mg of each purified compound was dissolved in 1 mL of ultrapure water to obtain the stock solution (1 mg/mL), which was further diluted to a series of concentrations (200, 100, 50, 20, and 10 μg/mL) with ultrapure water. The ultrapure water was used as the negative control, and glyphosate (N-(phosphonomethyl)glycine) at the same concentrations as the positive control. Plates were incubated in a moist chamber at 25 °C in the dark. The length of each radicle or germ was measured after treatment for 48 h. The inhibition of radicle or germ elongation was calculated as follows: Inhibition (%) = [(Lc − Lt)/Lc] × 100, where Lc is the radicle or germ length of the control group, and Lt is the length of the treated group.
(§3) All experiments were performed with three replicates, and the results were represented by their mean values and the standard deviations (SD). The data were carried out using analysis of variance (one-way ANOVA) to detect significant differences by PROC ANOVA of SAS version 8.2.

[2] = tested on: rice (Oryza sativa) seeds, germ; test: Inhibition of germ elongation of rice seeds; conditions: 48 h, 25 °C, dark, mean of triplicate ± SD
Procedure: as §1, §2, §3

rice seedlings = test: Abnormal swelling of roots and germs of rice seedlings; set-up: species or system Oryza sativa; conditions: observation in words; Figure 3B shows 200 µg/mL of ustiloxin G, variety Lijiang
Procedure: as §2

NCI-H1650 = test: Cytotoxicity, MTT assay, NCI-H1650; format: cell-based, human; conditions: non-small-cell lung carcinoma cells, 24 h treatment, absorbance 570 nm, three replicates
Procedure: (§4) Cytotoxicity of the compounds were tested against human carcinoma cells using the microculture methyl-thiazolyl-tetrazolium (MTT) assay as described previously. Briefly, the cell lines were maintained in a humidified atmosphere containing 5% CO2 at 37 °C. For preparing working solution, 1 μmol of each purified ustiloxin was dissolved in 10 mL of ultrapure water to obtain the stock solution (100 μM), which was further diluted to a series of concentrations (50, 25, 12.5, 6.25, 3.125, 1, 0.1, 1 × 10^−2, 1 × 10^−3, 1 × 10^−4, 1 × 10^−5 μM) with ultrapure water. Normally, 200 μL of the cell suspensions (5 × 10^4 cells/mL) was plated in 96-well culture plates at 37 °C. After 12 h, 20 μL of working solution was added to each well respectively and cultured at 37 °C for 24 h. Then, MTT was dissolved in saline to 5 mg/mL, and 20 μL of this solution was added to each well. After 4 h, the medium was removed, and then 100 μL of DMSO was added to dissolve any formazan crystals formed. Absorbance was then determined at 570 nm. The cell lines of colon cancer cells (HCT-116), non-small-cell lung carcinoma cells (NCI-H1650), gastric cancer cells (BGC-823), and liver hepatocellular carcinoma cells (HepG2) were tested for all isolated compounds. In addition, lung adenocarcinoma cells (A549) were tested on ustiloxins A (2), B (3), and G (1), and melanoma cells (A375) were tested on ustiloxin G (1). Ultrapure water and taxol were used as the negative and positive controls, respectively. All experiments were performed with three replicates.

A549 = test: Cytotoxicity, MTT assay, A549; format: cell-based, human; conditions: lung adenocarcinoma cells, 24 h treatment, absorbance 570 nm, three replicates
Procedure: as §4

HCT116 = test: Cytotoxicity, MTT assay, HCT116; format: cell-based, human; conditions: colon cancer cells, 24 h treatment, absorbance 570 nm, three replicates
Procedure: as §4

HepG2 = test: Cytotoxicity, MTT assay, HepG2; format: cell-based, human; conditions: liver hepatocellular carcinoma cells, 24 h treatment, absorbance 570 nm, three replicates
Procedure: as §4

BGC-823 = test: Cytotoxicity, MTT assay, BGC-823; format: cell-based, human; conditions: gastric cancer cells, 24 h treatment, absorbance 570 nm, three replicates
Procedure: as §4

SMILES | Inhibition Ratio (%) Seed Radicle Var. Lijiang ([1]; 10 µg/mL) | Inhibition Ratio (%) Seed Radicle Var. Zhonghua 11 ([1]; 10 µg/mL) | Inhibition Ratio (%) Seed Radicle Var. Lijiang ([1]; 20 µg/mL) | Inhibition Ratio (%) Seed Radicle Var. Zhonghua 11 ([1]; 20 µg/mL) | Inhibition Ratio (%) Seed Radicle Var. Lijiang ([1]; 50 µg/mL) | Inhibition Ratio (%) Seed Radicle Var. Zhonghua 11 ([1]; 50 µg/mL) | Inhibition Ratio (%) Seed Radicle Var. Lijiang ([1]; 100 µg/mL) | Inhibition Ratio (%) Seed Radicle Var. Zhonghua 11 ([1]; 100 µg/mL) | Inhibition Ratio (%) Seed Radicle Var. Lijiang ([1]; 200 µg/mL) | Inhibition Ratio (%) Seed Radicle Var. Zhonghua 11 ([1]; 200 µg/mL) | Inhibition Ratio (%) Seed Germ Var. Lijiang ([2]; 10 µg/mL) | Inhibition Ratio (%) Seed Germ Var. Zhonghua 11 ([2]; 10 µg/mL) | Inhibition Ratio (%) Seed Germ Var. Lijiang ([2]; 20 µg/mL) | Inhibition Ratio (%) Seed Germ Var. Zhonghua 11 ([2]; 20 µg/mL) | Inhibition Ratio (%) Seed Germ Var. Lijiang ([2]; 50 µg/mL) | Inhibition Ratio (%) Seed Germ Var. Zhonghua 11 ([2]; 50 µg/mL) | Inhibition Ratio (%) Seed Germ Var. Lijiang ([2]; 100 µg/mL) | Inhibition Ratio (%) Seed Germ Var. Zhonghua 11 ([2]; 100 µg/mL) | Inhibition Ratio (%) Seed Germ Var. Lijiang ([2]; 200 µg/mL) | Inhibition Ratio (%) Seed Germ Var. Zhonghua 11 ([2]; 200 µg/mL) | other results
O=C(O)CNCP(=O)(O)O [Glyphosate, N-(phosphonomethyl)glycine, reference compound] | 36.84 ± 2.91 g % | 28.24% | 62.91 ± 5.03 d % | 41.52 ± 5.20 e % | 85.08% | 68.88 ± 3.85 c % | 93.64 ± 2.66 a % | 81.05 ± 2.04 b % | 95.61 ± 2.74 a % | 87.72% | 20.99% | 21.16% | 37.82 ± 4.05 e % | 29.21% | 59.32 ± 5.06 c % | 35.36% | 68.21% | 57.60 ± 3.44 a % | 71.36 ± 2.68 a % | 58.93 ± 6.04 a % | –
CC[C@@]1(C)Oc2cc(c([S+]([O-])C[C@@H](O)C[C@H](N)C(=O)O)cc2O)[C@@H](O)[C@H](NC)C(=O)N[C@@H](C(C)C)C(=O)N[C@@H]1C(=O)NCC(=O)O (stereo partly drawn) [Ustiloxin A (2), ustiloxin A] | 17.83% | 12.27 ± 6.71 l % | 43.57 ± 0.61 f % | 56.16 ± 2.30 d % | 87.38 ± 0.79 b % | 89.14 ± 4.38 a % | 94.53 ± 0.36 a % | 93.72 ± 0.54 a % | 96.64 ± 0.36 a % | 95.29 ± 1.63 a % | 11.38% | 13.25% | 18.00% | 26.59% | 39.01 ± 6.84 e % | 42.04% | 50.59 ± 6.36 d % | 45.47% | 60.27% | 52.33% | abnormal swelling of the roots and germs of rice seedlings (rice seedlings): abnormal swelling; IC50 (NCI-H1650): > 50 µM; IC50 (A549): 3.12 µM; IC50 (HCT116): > 50 µM; IC50 (HepG2): > 50 µM; IC50 (BGC-823): 2.66 µM
CC[C@@]1(C)Oc2cc(c([S+]([O-])C[C@@H](O)C[C@H](N)C(=O)O)cc2O)[C@@H](O)[C@H](NC)C(=O)N[C@@H](C)C(=O)N[C@@H]1C(=O)NCC(=O)O (stereo partly drawn) [Ustiloxin B (3), ustiloxin B] | 4.16 ± 0.66 l % | 11.90 ± 6.45 l % | 14.27% | 20.22% | 53.24 ± 4.98 e % | 54.78 ± 3.09 d % | 86.62 ± 1.98 b % | 87.80% | 95.32 ± 1.32 a % | 93.04 ± 2.10 a % | 13.54% | 3.30% | 20.63% | 12.02% | 37.98 ± 3.83 e % | 35.60% | 49.65 ± 2.13 d % | 44.72% | 64.39% | 55.61 ± 2.75 a % | abnormal swelling of the roots and germs of rice seedlings (rice seedlings): abnormal swelling; IC50 (NCI-H1650): 21.6 µM; IC50 (A549): > 50 µM; IC50 (HCT116): 7.2 µM; IC50 (HepG2): 13 µM; IC50 (BGC-823): 1.03 µM
CC[C@@]1(C)Oc2cc(ccc2O)[C@@H](O)[C@H](NC)C(=O)N[C@@H](C(C)C)C(=O)N[C@@H]1C(=O)NCC(=O)O [Ustiloxin D (4), ustiloxin D] | 4.43 ± 5.47 l % | 13.55% | 5.42 ± 3.45 l % | 23.31% | 11.89% | 41.47 ± 4.88 e % | 79.92 ± 6.26 c % | 90.79 ± 0.94 a % | 94.92 ± 0.79 a % | 93.90 ± 2.11 a % | 10.73% | 10.98% | 11.67% | 12.28% | 11.87% | 16.19% | 19.92% | 25.48% | 38.76 ± 5.68 e % | 31.86% | IC50 (NCI-H1650): > 50 µM; IC50 (HCT116): > 50 µM; IC50 (HepG2): > 50 µM; IC50 (BGC-823): > 50 µM
CC[C@@]1(C)Oc2cc(ccc2O)[C@@H](O)[C@H](NC)C(=O)N[C@@H](C)C(=O)N[C@@H]1C(=O)NCC(=O)O [Ustiloxin F (5), ustiloxin F] | 5.07 ± 4.95 l % | 0.75% | 8.97% | 9.59 ± 3.80 l % | 22.17% | 16.51% | 26.72 ± 5.84 h % | 23.78% | 38.25% | 36.83% | 7.07% | 1.89 ± 4.86 p % | 7.90 ± 4.3 k1% | 9.36% | 9.14% | 14.97% | 15.16% | 17.77% | 24.57% | 18.71% | IC50 (NCI-H1650): > 50 µM; IC50 (HCT116): > 50 µM; IC50 (HepG2): > 50 µM; IC50 (BGC-823): > 50 µM
